Converted amounts (≈) assume the structure as drawn. Like-named read-outs stand apart in the source and are kept apart here. Values belong to the compound of their own block, whether it stands above or below them.
Experiments:
Type in all cases: cell-based
[1] = test system: Staphylococcus aureus EUP SAU040; test: MIC panel of challenge pathogens (CLSI)
Method: (§1) The inocula for each bacterial strain were prepared by picking 5-10 distinct colonies from the culture plates and suspending them in the appropriate broth as per Clinical and Laboratory Standards Institute (CLSI) guidelines M07-A8, M24-A or M11-A7 as appropriate. The inoculum was resuspended by vigorous shaking on a vortex mixer for 15 s. The turbidity was then adjusted to McFarland standard 0.5 ([…]). The inoculum was further diluted in the appropriate media for MIC tests to give a final inoculum in each well of 2-8×10^5 CFU/ml. MICs were tested in the appropriate broth in accordance with the appropriate CLSI guidelines.
(§2) A stock solution of each compound was prepared at a concentration of 1.28 g/L in DMSO. The stock was further diluted in the appropriate media to give a top starting concentration of 128 mg/L in the assay. 100 μL of the appropriate media, as per CLSI guidelines, was dispensed into each well in columns 2-12. 200 μL of the each compound solution (at 256 mg/L) was dispensed into each well in column 1. 100 μL aliquots were pipetted from column 1 wells and dispensed into column 2 with a multichannel pipette (±2% coefficient of variation) thus diluting two-fold. 100 μL samples were then pipetted from column 2 wells and dispensed into column 3. The process was repeated through to column 10. The final 100 μL of diluted drug from column 10 was then discarded. Row 11 acted as a positive control (no compound, but organisms added), Row 12 acted as a negative control (no compound, and no organisms added).
(§3) 100 μL of the appropriate inoculum suspension in the appropriate media, as per CLSI guidelines, was added to the appropriate wells. […] All plates were incubated in the dark under aerobic or anaerobic conditions at 30-37° C. for 24-48 hours, according to the appropriate CLSI guideline. Plates were read visually 24-48 hours post inoculation. Endpoints of 100% inhibition were determined (CLSI interpretation endpoints following visual examination).
(§4) MIC50, MIC80, and 100% inhibition results are reported below in μg/mL in the following Tables, indicating each compound tested against a given species and strain: […]

[2] = test system: Staphylococcus aureus ATCC43300; test: MIC panel of challenge pathogens (CLSI)
Method: as §1, §2, §3, §4

[3] = test system: Staphylococcus aureus AUR58 7005; test: MIC panel of challenge pathogens (CLSI)
Method: as §1, §2, §3, §4

Bacillus cereus NCTC6349 = test: MIC panel of challenge pathogens (CLSI)
Method: as §1, §2, §3, §4

[4] = test system: Staphylococcus aureus EUP MRSA004; test: MIC panel of challenge pathogens (CLSI)
Method: as §1, §2, §3, §4

[5] = test system: Enterococcus faecalis ATCC51299; test: MIC panel of challenge pathogens (CLSI)
Method: as §1, §2, §3, §4

[6] = test system: Staphylococcus aureus EUP MRSA002; test: MIC panel of challenge pathogens (CLSI)
Method: as §1, §2, §3, §4

[7] = test system: Staphylococcus aureus NRS382; test: MIC panel of challenge pathogens (CLSI)
Method: as §1, §2, §3, §4

[8] = test system: Staphylococcus aureus EUP MRSA002; test: MIC panel of challenge pathogens (CLSI), EUP MRSA002
Method: as §1, §2, §3, §4

[9] = EUPSAU040, Staphylococcus aureus EUP SAU040, read-out: 100% inhibition
[10] = EUPSAU040, Staphylococcus aureus EUP SAU040, read-out: MIC50 (50%)
[11] = EUPSAU040, Staphylococcus aureus EUP SAU040, read-out: MIC80 (80%)
[12] = Staphylococcus aureus ATCC43300, read-out: 100% inhibition
[13] = Staphylococcus aureus ATCC43300, read-out: MIC50 (50%)
[14] = Staphylococcus aureus ATCC43300, read-out: MIC80 (80%)
[15] = AUR587005, Staphylococcus aureus AUR58 7005, read-out: 100% inhibition
[16] = AUR587005, Staphylococcus aureus AUR58 7005, read-out: MIC50 (50%)
[17] = AUR587005, Staphylococcus aureus AUR58 7005, read-out: MIC80 (80%)
[18] = Bacillus cereus NCTC6349, read-out: 100% inhibition
[19] = Bacillus cereus NCTC6349, read-out: MIC50 (50%)
[20] = Bacillus cereus NCTC6349, read-out: MIC80 (80%)
[21] = EUPMRSA004, Staphylococcus aureus EUP MRSA004, read-out: 100% inhibition
[22] = EUPMRSA004, Staphylococcus aureus EUP MRSA004, read-out: MIC50 (50%)
[23] = EUPMRSA004, Staphylococcus aureus EUP MRSA004, read-out: MIC80 (80%)
[24] = Enterococcus faecalis ATCC51299, read-out: 100% inhibition
[25] = Enterococcus faecalis ATCC51299, read-out: MIC50 (50%)
[26] = Enterococcus faecalis ATCC51299, read-out: MIC80 (80%)
[27] = EUPMRSA002, Staphylococcus aureus EUP MRSA002, read-out: 100% inhibition
[28] = EUPMRSA002, Staphylococcus aureus EUP MRSA002, read-out: MIC50 (50%)
[29] = EUPMRSA002, Staphylococcus aureus EUP MRSA002, read-out: MIC80 (80%)
[30] = Staphylococcus aureus NRS382, read-out: 100% inhibition
[31] = Staphylococcus aureus NRS382, read-out: MIC50 (50%)
[32] = Staphylococcus aureus NRS382, read-out: MIC80 (80%)
[33] = Staphylococcus aureus, EUPMRSA002, read-out: 100% inhibition
[34] = Staphylococcus aureus, EUPMRSA002, read-out: MIC50 (50%)
[35] = Staphylococcus aureus, EUPMRSA002, read-out: MIC80 (80%)

MIC [1, 9]: ≤ 0.25 µg/mL | MIC50 [1, 10]: ≤ 0.25 µg/mL | MIC80 [1, 11]: ≤ 0.25 µg/mL | MIC [2, 12]: ≤ 0.25 µg/mL | MIC50 [2, 13]: ≤ 0.25 µg/mL | MIC80 [2, 14]: ≤ 0.25 µg/mL | MIC [3, 15]: 1 µg/mL (≈ 2.45 µM) | MIC50 [3, 16]: 0.5 µg/mL (≈ 1.22 µM) | MIC80 [3, 17]: 1 µg/mL (≈ 2.45 µM) | MIC (Bacillus cereus NCTC6349; [18]): 0.5 µg/mL (≈ 1.22 µM) | MIC50 (Bacillus cereus NCTC6349; [19]): 0.5 µg/mL (≈ 1.22 µM) | MIC80 (Bacillus cereus NCTC6349; [20]): 0.5 µg/mL (≈ 1.22 µM) | MIC [4, 21]: ≤ 0.25 µg/mL | MIC50 [4, 22]: ≤ 0.25 µg/mL | MIC80 [4, 23]: ≤ 0.25 µg/mL | MIC [5, 24]: 1 µg/mL (≈ 2.45 µM) | MIC50 [5, 25]: 1 µg/mL (≈ 2.45 µM) | MIC80 [5, 26]: 1 µg/mL (≈ 2.45 µM) | MIC [6, 27]: 0.5 µg/mL (≈ 1.22 µM) | MIC50 [6, 28]: 0.5 µg/mL (≈ 1.22 µM) | MIC80 [6, 29]: 0.5 µg/mL (≈ 1.22 µM) | MIC [7, 30]: 0.5 µg/mL (≈ 1.22 µM) | MIC50 [7, 31]: 0.5 µg/mL (≈ 1.22 µM) | MIC80 [7, 32]: 0.5 µg/mL (≈ 1.22 µM) | MIC [8, 27]: ≤ 0.25 µg/mL | MIC50 [8, 28]: ≤ 0.25 µg/mL | MIC80 [8, 29]: ≤ 0.25 µg/mL
Structure (SMILES): CCCCc1cccc(-c2cc(-c3nnn[nH]3)sc2Cc2ccc(Cl)cc2)c1 [DNM0606, 5-(4-(3-Butylphenyl)-5-(4-chlorobenzyl)thiophen-2-yl)-1H-tetrazole]

MIC [1, 9]: 0.5 µg/mL (≈ 1.15 µM) | MIC50 [1, 10]: 0.5 µg/mL (≈ 1.15 µM) | MIC80 [1, 11]: 0.5 µg/mL (≈ 1.15 µM) | MIC [2, 12]: 0.5 µg/mL (≈ 1.15 µM) | MIC50 [2, 13]: 0.5 µg/mL (≈ 1.15 µM) | MIC80 [2, 14]: 0.5 µg/mL (≈ 1.15 µM) | MIC [3, 15]: 2 µg/mL (≈ 4.6 µM) | MIC50 [3, 16]: 1 µg/mL (≈ 2.3 µM) | MIC80 [3, 17]: 2 µg/mL (≈ 4.6 µM) | MIC (Bacillus cereus NCTC6349; [18]): 0.5 µg/mL (≈ 1.15 µM) | MIC50 (Bacillus cereus NCTC6349; [19]): 0.5 µg/mL (≈ 1.15 µM) | MIC80 (Bacillus cereus NCTC6349; [20]): 0.5 µg/mL (≈ 1.15 µM) | MIC [4, 21]: ≤ 0.25 µg/mL | MIC50 [4, 22]: ≤ 0.25 µg/mL | MIC80 [4, 23]: ≤ 0.25 µg/mL | MIC [5, 24]: 1 µg/mL (≈ 2.3 µM) | MIC50 [5, 25]: 1 µg/mL (≈ 2.3 µM) | MIC80 [5, 26]: 1 µg/mL (≈ 2.3 µM) | MIC [6, 27]: 0.5 µg/mL (≈ 1.15 µM) | MIC50 [6, 28]: 0.5 µg/mL (≈ 1.15 µM) | MIC80 [6, 29]: 0.5 µg/mL (≈ 1.15 µM) | MIC [7, 30]: 0.5 µg/mL (≈ 1.15 µM) | MIC50 [7, 31]: 0.5 µg/mL (≈ 1.15 µM) | MIC80 [7, 32]: 0.5 µg/mL (≈ 1.15 µM) | MIC [8, 27]: 0.5 µg/mL (≈ 1.15 µM) | MIC50 [8, 28]: 0.5 µg/mL (≈ 1.15 µM) | MIC80 [8, 29]: 0.5 µg/mL (≈ 1.15 µM)
Structure (SMILES): Clc1ccc(Cc2sc(-c3nnn[nH]3)cc2-c2cccc(CC3CCCC3)c2)cc1 [DNM0610, 5-(5-(4-Chlorobenzyl)-4-(3-(cyclopentylmethyl)phenyl)thiophen-2-yl)-1H-tetrazole]

Structure (SMILES): CN[C@H](CC(C)C)C(=O)N[C@H]1C(=O)N[C@@H](CC(N)=O)C(=O)N[C@H]2C(=O)N[C@H]3C(=O)N[C@H](C(=O)N[C@H](C(=O)O)c4cc(O)cc(O)c4-c4cc3ccc4O)[C@H](O)c3ccc(c(Cl)c3)Oc3cc2cc(c3O[C@@H]2O[C@H](CO)[C@@H](O)[C@H](O)[C@H]2O[C@H]2C[C@](C)(N)[C@H](O)[C@H](C)O2)Oc2ccc(cc2Cl)[C@H]1O [Vancomycin, reference compound]
MIC ([1]; Staphylococcus aureus, EUPSAU040, read-out: 100% inhibition): 1 µg/mL (≈ 0.69 µM) | MIC50 ([1]; Staphylococcus aureus, EUPSAU040, read-out: MIC50 (50%)): 1 µg/mL (≈ 0.69 µM) | MIC80 ([1]; Staphylococcus aureus, EUPSAU040, read-out: MIC80 (80%)): 1 µg/mL (≈ 0.69 µM) | MIC ([2]; Staphylococcus aureus, ATCC43300, read-out: 100% inhibition): 0.5 µg/mL (≈ 0.345 µM) | MIC50 ([2]; Staphylococcus aureus, ATCC43300, read-out: MIC50 (50%)): 0.5 µg/mL (≈ 0.345 µM) | MIC80 ([2]; Staphylococcus aureus, ATCC43300, read-out: MIC80 (80%)): 0.5 µg/mL (≈ 0.345 µM) | MIC ([3]; Staphylococcus aureus, AUR587005, read-out: 100% inhibition): 1 µg/mL (≈ 0.69 µM) | MIC50 ([3]; Staphylococcus aureus, AUR587005, read-out: MIC50 (50%)): 1 µg/mL (≈ 0.69 µM) | MIC80 ([3]; Staphylococcus aureus, AUR587005, read-out: MIC80 (80%)): 1 µg/mL (≈ 0.69 µM) | MIC (Bacillus cereus NCTC6349; Bacillus cereus, NCTC6349, read-out: 100% inhibition): 2 µg/mL (≈ 1.38 µM) | MIC50 (Bacillus cereus NCTC6349; Bacillus cereus, NCTC6349, read-out: MIC50 (50%)): 1 µg/mL (≈ 0.69 µM) | MIC80 (Bacillus cereus NCTC6349; Bacillus cereus, NCTC6349, read-out: MIC80 (80%)): 2 µg/mL (≈ 1.38 µM) | MIC ([4]; Staphylococcus aureus, EUPMRSA004, read-out: 100% inhibition): 0.5 µg/mL (≈ 0.345 µM) | MIC50 ([4]; Staphylococcus aureus, EUPMRSA004, read-out: MIC50 (50%)): 0.5 µg/mL (≈ 0.345 µM) | MIC80 ([4]; Staphylococcus aureus, EUPMRSA004, read-out: MIC80 (80%)): 0.5 µg/mL (≈ 0.345 µM) | MIC ([5]; Enterococcus faecalis, ATCC51299, read-out: 100% inhibition): > 16 µg/mL | MIC50 ([5]; Enterococcus faecalis, ATCC51299, read-out: MIC50 (50%)): > 16 µg/mL | MIC80 ([5]; Enterococcus faecalis, ATCC51299, read-out: MIC80 (80%)): > 16 µg/mL | MIC [6, 33]: 0.5 µg/mL (≈ 0.345 µM) | MIC50 [6, 34]: 0.5 µg/mL (≈ 0.345 µM) | MIC80 [6, 35]: 0.5 µg/mL (≈ 0.345 µM) | MIC ([7]; Staphylococcus aureus, NRS382, read-out: 100% inhibition): 1 µg/mL (≈ 0.69 µM) | MIC50 ([7]; Staphylococcus aureus, NRS382, read-out: MIC50 (50%)): 1 µg/mL (≈ 0.69 µM) | MIC80 ([7]; Staphylococcus aureus, NRS382, read-out: MIC80 (80%)): 1 µg/mL (≈ 0.69 µM) | MIC [8, 33]: 0.5 µg/mL (≈ 0.345 µM) | MIC50 [8, 34]: 0.5 µg/mL (≈ 0.345 µM) | MIC80 [8, 35]: 0.5 µg/mL (≈ 0.345 µM)
